We go through 4 molecules from patent US20210346385A1, “TASTE-MASKED DOSAGE FORMS” (MSB Holdings, Inc, priority 2018, published 2021).

The series can be described thus: Dissolving time of the troche. The class given is physicochemical.
Setting [1] is: ingredient in troche of Example 4f.
The mark [2] stands for this setting: ingredient in troche of Example 4i.
[3] abbreviates: ingredient in troche of Example 4j.
Where [4] appears, read: ingredient in troche of Example 4k.
The mark [5] stands for this setting: ingredient in troche of Example 4l.
Setting [6] is: ingredient in troche of Example 4m.
The mark [7] stands for this setting: ingredient in troche of Example 4n.
[8] abbreviates: ingredient in troche of Example 4o (ButterCream).
The mark [9] stands for this setting: ingredient in troche of Example 4o (Vanilla, Marshmallow).
The mark [10] stands for this setting: ingredient in troche of Example 4p.
Setting [11] is: ingredient in troche of Example 4c, troche with silica, acacia and Winterfresh.
[12] abbreviates: ingredient in troche of Example 4d, troche with Alpha agent, silica, acacia, cherry.
The mark [13] stands for this setting: ingredient in troche of Example 42.
Where [14] appears, read: ingredient in troche of Example 4h.

As for `CC1=CC(=O)NS(=O)(=O)O1` [Acesulfame], the “Dissolving time: remark for the single ingredient” value (“Dissolving time: remark” below) was “No effect” under setting [1]; “No effect” under setting [2]; “No effect” under setting [3]; “No effect” under setting [4]; “No effect” under setting [5]; “No effect” under setting [6]. Moreover, the “Dissolving time: remark” value is, setting by setting: under setting [7], “No effect”; under setting [8], “No effect”; under setting [9], “No effect”; under setting [10], “No effect”.

Sugar: the “Dissolving time: remark” value is given as “Did Not Help” (ingredient in troche of Example 4b), “Did Not Help” under setting [11] and “No effect” under setting [12].

With `CCCc1nn(C)c2c(=O)[nH]c(-c3cc(S(=O)(=O)N4CCN(C)CC4)ccc3OCC)nc12` [Sildenafil, reference compound], the “Dissolving time: remark” value is recorded as “No effect” under setting [11]; “No effect” (ingredient in troche of Example 4e); “No effect” under setting [1]; “No effect” under setting [2]; “No effect” under setting [3]; “No effect” under setting [4]. Besides, the “Dissolving time: remark” value is, setting by setting: under setting [5], “No effect”; under setting [6], “No effect”; under setting [7], “No effect”; under setting [8], “No effect”; under setting [9], “No effect”; under setting [10], “No effect”. For the same molecule, the “Dissolving time: remark” value runs as follows: under setting [13], “No effect”; under setting [14], “No effect”; under setting [12], “No effect”.

For the molecule `C=C1C[C@@]23CC[C@H]4[C@@](C)(CCC[C@@]4(C)C(=O)O)[C@@H]2CC[C@]1(O)C3` [Steviol], the “Dissolving time: remark” value reads like this: under setting [3], “No effect”; under setting [4], “No effect”; under setting [5], “No effect”; under setting [6], “No effect”; under setting [7], “No effect”; under setting [8], “No effect”. For the same molecule, the “Dissolving time: remark” value under setting [9] is “No effect”, the “Dissolving time: remark” value under setting [10] was “No effect”, the “Dissolving time: remark” value under setting [13] is listed as “No effect” and the “Dissolving time: remark” value under setting [14] is “No effect”.
